# What was measured:
# 5-Fluorouracil = compound: O=c1[nH]cc(F)c(=O)[nH]1 [5-Fluorouracil]; conditions: max 20 µM
# Procedure, shortened: (§1)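 Cancer cell lines were seeded in 1536-well plates in 7.5 μl DMEM/F12 or RPMI with 10% FBS, held 24 hours at 37°C and 5% CO2, then dosed for 72 hours (final DMSO typically 0.2%). Viability was read by CellTiter-Glo 2.0 luminescence and scaled between blank-well and DMSO-well means. The single-agent IC50 comes from dose responses fitted to a two-parameter logistic curve with a non-linear mixed effects model.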
# Trametinib = compound: CC(=O)Nc1cccc(-n2c(=O)n(C3CC3)c(=O)c3c(Nc4ccc(I)cc4F)n(C)c(=O)c(C)c32)c1 [Trametinib]; conditions: max 1 µM
# Procedure, shortened: as §1
# AZD8186 = compound: C[C@@H](Nc1cc(F)cc(F)c1)c1cc(C(=O)N(C)C)cc2c(=O)cc(N3CCOCC3)oc12 [AZD8186]; conditions: max 10 µM
# Procedure, shortened: as §1
# Lapatinib = compound: CS(=O)(=O)CCNCc1ccc(-c2ccc3ncnc(Nc4ccc(OCc5cccc(F)c5)c(Cl)c4)c3c2)o1 [Lapatinib]; conditions: max 10 µM
# Procedure, shortened: as §1
# AZD1775 = compound: C=CCn1c(=O)c2cnc(Nc3ccc(N4CCN(C)CC4)cc3)nc2n1-c1cccc(C(C)(C)O)n1 [AZD1775]; conditions: max 3 µM
# Procedure, shortened: as §1
# MK-2206 = compound: NC1(c2ccc(-c3nc4ccn5c(=O)[nH]nc5c4cc3-c3ccccc3)cc2)CCC1 [MK-2206]; conditions: max 10 µM
# Procedure, shortened: as §1
# AZD0156 = compound: CN(C)CCCOc1ccc(-c2ccc3ncc4c(c3c2)n(C2CCOCC2)c(=O)n4C)cn1 [AZD0156]; conditions: max 3 µM
# Procedure, shortened: as §1
# AZD2811 = compound: CCN(CCO)CCCOc1ccc2c(Nc3cc(CC(=O)Nc4cccc(F)c4)[nH]n3)ncnc2c1 [AZD2811]; conditions: max 1 µM
# Procedure, shortened: as §1
# Doxorubicin = compound: COc1cccc2c1C(=O)c1c(O)c3c(c(O)c1C2=O)C[C@@](O)(C(=O)CO)C[C@@H]3O[C@H]1C[C@H](N)[C@H](O)[C@H](C)O1 [Doxorubicin]; conditions: max 1 µM
# Procedure, shortened: as §1
# AZD6738 = compound: C[C@@H]1COCCN1C2=NC(=NC(=C2)C3(CC3)[S@](=N)(=O)C)C4=C5C=CNC5=NC=C4 [AZD6738]; conditions: max 10 µM
# Procedure, shortened: as §1
# AZD7648 = compound: Cc1cc2ncnn2cc1Nc1ncc2c(n1)n(C1CCOCC1)c(=O)n2C [AZD7648]; conditions: max 10 µM
# Procedure, shortened: as §1
# SN-38 = compound: CCc1c2c(nc3ccc(O)cc13)-c1cc3c(c(=O)n1C2)COC(=O)[C@]3(O)CC [SN-38]; conditions: max 0.3 µM
# Procedure, shortened: as §1
# Selumetinib = compound: Cn1cnc2c(F)c(Nc3ccc(Br)cc3Cl)c(C(=O)NOCCO)cc21 [Selumetinib]; conditions: max 10 µM
# Procedure, shortened: as §1
# Prexasertib = compound: COc1cccc(OCCCN)c1-c1cc(Nc2cnc(C#N)cn2)n[nH]1 [Prexasertib]; conditions: max 1 µM
# Procedure, shortened: as §1
# AZD1390 = compound: CC(C)n1c(=O)n(C)c2cnc3cc(F)c(-c4ccc(OCCCN5CCCCC5)nc4)cc3c21 [AZD1390]; conditions: max 0.3 µM
# Procedure, shortened: as §1
# SRA737 = compound: N#Cc1cnc(Nc2cc(NC[C@H]3CNCCO3)c(C(F)(F)F)cn2)cn1 [SRA737]; conditions: max 10 µM
# Procedure, shortened: as §1
# Carboplatin = compound: C1CC(C1)(C(=O)[O-])C(=O)[O-].N.N.[Pt+2] [Carboplatin]; conditions: max 10 µM
# Procedure, shortened: as §1
# Savolitinib = compound: C[C@@H](c1ccc2nccn2c1)n1nnc2ncc(-c3cnn(C)c3)nc21 [Savolitinib]; conditions: max 1 µM
# Procedure, shortened: as §1
# AZD4320 = compound: CN(CC[C@H](CSC1=CC=CC=C1)NC2=C(C=C(C=C2)S(=O)(=O)NC(=O)C3=CC=C(C=C3)N4CCC(CC4)[C@H](C5=CC=CC=C5C6=CC=C(C=C6)Cl)O)S(=O)(=O)C(F)(F)F)CCO [AZD4320]; conditions: max 1 µM
# Procedure, shortened: as §1
# SG3199 = compound: CC1=CN2[C@@H](C1)C=NC3=CC(=C(C=C3C2=O)OC)OCCCCCOC4=C(C=C5C(=C4)N=C[C@@H]6CC(=CN6C5=O)C)OC [SG3199]; conditions: max 0.001 µM
# Procedure, shortened: as §1
# Venetoclax = compound: CC1(C)CCC(CN2CCN(c3ccc(C(=O)NS(=O)(=O)c4ccc(NCC5CCOCC5)c([N+](=O)[O-])c4)c(Oc4cnc5[nH]ccc5c4)c3)CC2)=C(c2ccc(Cl)cc2)C1 [Venetoclax]; conditions: max 1 µM
# Procedure, shortened: as §1
# Taselisib = compound: Cc1nc(-c2cn3c(n2)-c2ccc(-c4cnn(C(C)(C)C(N)=O)c4)cc2OCC3)n(C(C)C)n1 [Taselisib]; conditions: max 10 µM
# Procedure, shortened: as §1
# [1] = compound: O=C(Nc1ccc2[nH]nc(-c3ccncc3)c2c1)[C@@H]1CCN(CC(=O)N2CCN(c3ccc(-c4ncccn4)cc3)CC2)C1; conditions: max 5 µM
# Procedure, shortened: as §1
# Crizotinib = compound: C[C@@H](Oc1cc(-c2cnn(C3CCNCC3)c2)cnc1N)c1c(Cl)ccc(F)c1Cl [Crizotinib]; conditions: max 10 µM
# Procedure, shortened: as §1
# Paclitaxel = compound: CC(=O)O[C@H]1C(=O)[C@@]2(C)[C@H]([C@H](OC(=O)c3ccccc3)[C@]3(O)C[C@H](OC(=O)[C@H](O)[C@@H](NC(=O)c4ccccc4)c4ccccc4)C(C)=C1C3(C)C)[C@]1(OC(C)=O)CO[C@@H]1C[C@@H]2O [Paclitaxel]; conditions: max 3 µM
# Procedure, shortened: as §1
# Etoposide = compound: COc1cc([C@@H]2c3cc4c(cc3[C@@H](O[C@@H]3O[C@@H]5CO[C@@H](C)O[C@H]5[C@H](O)[C@H]3O)[C@H]3COC(=O)[C@H]23)OCO4)cc(OC)c1O [Etoposide]; conditions: max 10 µM
# Procedure, shortened: as §1
# Gefitinib = compound: COc1cc2ncnc(Nc3ccc(F)c(Cl)c3)c2cc1OCCCN1CCOCC1 [Gefitinib]; conditions: max 10 µM
# Procedure, shortened: as §1
# Alisertib = compound: COc1cc(Nc2ncc3c(n2)-c2ccc(Cl)cc2C(c2c(F)cccc2OC)=NC3)ccc1C(=O)O [Alisertib]; conditions: max 10 µM
# Procedure, shortened: as §1
# Gemcitabine = compound: Nc1ccn([C@@H]2O[C@H](CO)[C@@H](O)C2(F)F)c(=O)n1 [Gemcitabine]; conditions: max 0.3 µM
# Procedure, shortened: as §1
# AZD5991 = compound: Cc1c2c(nn1C)CSCc1cc(n(C)n1)CSc1cc(c3ccccc3c1)OCCCc1c(C(=O)O)n(C)c3c-2c(Cl)ccc13 [AZD5991]; conditions: max 1 µM
# Procedure, shortened: as §1
# Palbociclib = compound: CC(=O)c1c(C)c2cnc(Nc3ccc(N4CCNCC4)cn3)nc2n(C2CCCC2)c1=O [Palbociclib]; conditions: max 10 µM
# Procedure, shortened: as §1
# Olaparib = compound: O=C(c1cc(Cc2n[nH]c(=O)c3ccccc23)ccc1F)N1CCN(C(=O)C2CC2)CC1 [Olaparib]; conditions: max 10 µM
# Procedure, shortened: as §1
# Dasatinib = compound: CC1=C(C(=CC=C1)Cl)NC(=O)C2=CN=C(S2)NC3=CC(=NC(=N3)C)N4CCN(CC4)CCO [Dasatinib]; conditions: max 2 µM
# Procedure, shortened: as §1
# AZD5153 = compound: COc1nnc2ccc(N3CCC(c4ccc(OCCN5CCN(C)C(=O)[C@H]5C)cc4)CC3)nn12 [AZD5153]; conditions: max 1 µM
# Procedure, shortened: as §1
# AZD5363 = compound: C1CN(CCC1(C(=O)N[C@@H](CCO)C2=CC=C(C=C2)Cl)N)C3=NC=NC4=C3C=CN4 [AZD5363]; conditions: max 10 µM
# Procedure, shortened: as §1
Cell Line,"IC50, cell viability 72 h (5-Fluorouracil)","IC50, cell viability 72 h (Trametinib)","IC50, cell viability 72 h (AZD8186)","IC50, cell viability 72 h (Lapatinib)","IC50, cell viability 72 h (AZD1775)","IC50, cell viability 72 h (MK-2206)","IC50, cell viability 72 h (AZD0156)","IC50, cell viability 72 h (AZD2811)","IC50, cell viability 72 h (Doxorubicin)","IC50, cell viability 72 h (AZD6738)","IC50, cell viability 72 h (AZD7648)","IC50, cell viability 72 h (SN-38)","IC50, cell viability 72 h (Selumetinib)","IC50, cell viability 72 h (Prexasertib)","IC50, cell viability 72 h (AZD1390)","IC50, cell viability 72 h (SRA737)","IC50, cell viability 72 h (Carboplatin)","IC50, cell viability 72 h (Savolitinib)","IC50, cell viability 72 h (AZD4320)","IC50, cell viability 72 h (SG3199)","IC50, cell viability 72 h (Venetoclax)","IC50, cell viability 72 h (Taselisib)","IC50, cell viability 72 h [1]","IC50, cell viability 72 h (Crizotinib)","IC50, cell viability 72 h (Paclitaxel)","IC50, cell viability 72 h (Etoposide)","IC50, cell viability 72 h (Gefitinib)","IC50, cell viability 72 h (Alisertib)","IC50, cell viability 72 h (Gemcitabine)","IC50, cell viability 72 h (AZD5991)","IC50, cell viability 72 h (Palbociclib)","IC50, cell viability 72 h (Olaparib)","IC50, cell viability 72 h (Dasatinib)","IC50, cell viability 72 h (AZD5153)","IC50, cell viability 72 h (AZD5363)"
EFO-21 (Ovarian Carcinoma),> 20000 nM,> 1000 nM,> 10000 nM,> 10000 nM,> 3000 nM,> 10000 nM,> 3000 nM,> 1000 nM,> 1000 nM,> 10000 nM,> 10000 nM,> 300 nM,> 10000 nM,101 nM,> 300 nM,> 10000 nM,> 10000 nM,> 1000 nM,> 1000 nM,> 1 nM,> 1000 nM,> 10000 nM,> 5000 nM,> 10000 nM,> 3000 nM,> 10000 nM,> 10000 nM,> 10000 nM,> 300 nM,> 1000 nM,> 10000 nM,> 10000 nM,> 2000 nM,> 1000 nM,> 10000 nM
HAL-01 (B-Lymphoblastic Leukemia),> 20000 nM,> 1000 nM,1130 nM,> 10000 nM,327 nM,1000 nM,> 3000 nM,> 1000 nM,496 nM,652 nM,> 10000 nM,5.69 nM,> 10000 nM,16.6 nM,> 300 nM,528 nM,> 10000 nM,> 1000 nM,496 nM,> 1 nM,109 nM,360 nM,> 5000 nM,2840 nM,335 nM,2700 nM,> 10000 nM,109 nM,2.47 nM,> 1000 nM,1890 nM,> 10000 nM,> 2000 nM,91.8 nM,> 10000 nM
KGN (Other Solid Carcinomas),> 20000 nM,999 nM,3860 nM,> 10000 nM,490 nM,> 10000 nM,> 3000 nM,451 nM,95 nM,2750 nM,> 10000 nM,8.95 nM,> 10000 nM,117 nM,> 300 nM,> 10000 nM,> 10000 nM,> 1000 nM,> 1000 nM,> 1 nM,> 1000 nM,2320 nM,> 5000 nM,4340 nM,12.8 nM,2000 nM,> 10000 nM,1590 nM,6.01 nM,> 1000 nM,2850 nM,> 10000 nM,167 nM,153 nM,> 10000 nM
KMRC-1 (Kidney Carcinoma),> 20000 nM,> 1000 nM,3160 nM,> 10000 nM,> 3000 nM,> 10000 nM,> 3000 nM,> 1000 nM,> 1000 nM,> 10000 nM,> 10000 nM,> 300 nM,> 10000 nM,588 nM,> 300 nM,> 10000 nM,> 10000 nM,> 1000 nM,> 1000 nM,> 1 nM,> 1000 nM,> 10000 nM,> 5000 nM,> 10000 nM,> 3000 nM,> 10000 nM,> 10000 nM,> 10000 nM,133 nM,> 1000 nM,> 10000 nM,> 10000 nM,711 nM,> 1000 nM,> 10000 nM
MDA-MB-453 (Breast Carcinoma),> 20000 nM,> 1000 nM,> 10000 nM,> 10000 nM,1510 nM,3560 nM,> 3000 nM,> 1000 nM,> 1000 nM,3960 nM,> 10000 nM,68.2 nM,> 10000 nM,42.9 nM,> 300 nM,> 10000 nM,> 10000 nM,> 1000 nM,> 1000 nM,> 1 nM,> 1000 nM,521 nM,> 5000 nM,> 10000 nM,509 nM,> 10000 nM,> 10000 nM,> 10000 nM,> 300 nM,> 1000 nM,> 10000 nM,> 10000 nM,> 2000 nM,349 nM,8590 nM
SK-LU-1 (Lung Adenocarcinoma),> 20000 nM,> 1000 nM,> 10000 nM,> 10000 nM,1150 nM,> 10000 nM,> 3000 nM,> 1000 nM,–,> 10000 nM,> 10000 nM,145 nM,> 10000 nM,–,> 300 nM,> 10000 nM,> 10000 nM,> 1000 nM,> 1000 nM,–,> 1000 nM,> 10000 nM,> 5000 nM,> 10000 nM,> 3000 nM,> 10000 nM,> 10000 nM,–,> 300 nM,> 1000 nM,> 10000 nM,> 10000 nM,> 2000 nM,> 1000 nM,> 10000 nM

# Reference: the supplement of paper PMC11061612
